Test results as given in ChEMBL document CHEMBL5370683, “Peptide-to-Small Molecule: Discovery of Non-Covalent, Active-Site Inhibitors of β-Herpesvirus Proteases” (ACS Med Chem Lett, 2023).
Peptide text beside a SMILES is read from it.

What was measured:
[1] = Inhibition of N-terminal 6 His-tagged HHV6 protease W7A mutant (2 to 230 residues) expressed in Escherichia coli BL21 cells using 5FAM-KPSILNASLTPETVKK as peptide substrate incubated for 3 hrs by fluorescence based analysis; parameters: species or system Human betaherpesvirus 6
[2] = Inhibition of amino terminal GST tagged HCMV protease W7A mutant (1 to 256 residues) expressed in Escherichia coli BL21 (DE3) cells using 5-carboxyfluorescein [FAM]-RGVVNASSRLAK as peptide substrate incubated for 3 hrs by fluorescence based analysis; parameters: species or system Human betaherpesvirus 5
[3] = Inhibition of amino terminal GST tagged HCMV protease H5A mutant (1 to 256 residues) expressed in Escherichia coli BL21 (DE3) cells using 5-carboxyfluorescein [FAM]-RGVVNASSRLAK as peptide substrate incubated for 3 hrs by fluorescence based analysis; parameters: species or system Human betaherpesvirus 5
[4] = Inhibition of N-terminal 6 His-tagged HHV6 protease H5A mutant (2 to 230 residues) expressed in Escherichia coli BL21 cells using 5FAM-KPSILNASLTPETVKK as peptide substrate incubated for 3 hrs by fluorescence based analysis; parameters: species or system Human betaherpesvirus 6
[5] = Inhibition of amino terminal GST tagged HCMV protease V8A mutant (1 to 256 residues) expressed in Escherichia coli BL21 (DE3) cells using 5-carboxyfluorescein [FAM]-RGVVNASSRLAK as peptide substrate incubated for 3 hrs by fluorescence based analysis; parameters: species or system Human betaherpesvirus 5
[6] = Inhibition of N-terminal 6 His-tagged HHV6 protease V8A mutant (2 to 230 residues) expressed in Escherichia coli BL21 cells using 5FAM-KPSILNASLTPETVKK as peptide substrate incubated for 3 hrs by fluorescence based analysis; parameters: species or system Human betaherpesvirus 6
[7] = Inhibition of N-terminal 6 His-tagged HHV6 protease T3A mutant (2 to 230 residues) expressed in Escherichia coli BL21 cells using 5FAM-KPSILNASLTPETVKK as peptide substrate incubated for 3 hrs by fluorescence based analysis; parameters: species or system Human betaherpesvirus 6
[8] = Inhibition of amino terminal GST tagged HCMV protease T3A mutant (1 to 256 residues) expressed in Escherichia coli BL21 (DE3) cells using 5-carboxyfluorescein [FAM]-RGVVNASSRLAK as peptide substrate incubated for 3 hrs by fluorescence based analysis; parameters: species or system Human betaherpesvirus 5
[9] = Inhibition of N-terminal 6 His-tagged HHV6 protease (2 to 230 residues) expressed in Escherichia coli BL21 cells using 5FAM-KPSILNASLTPETVKK as peptide substrate incubated for 3 hrs by fluorescence based analysis; parameters: species or system Human betaherpesvirus 6
Human betaherpesvirus 5 [10] = assay: Antiviral activity against HCMV infected in HFF cells assessed as reduction in viral replication; format: functional, organism-based; settings: Human betaherpesvirus 5, HFF
[11] = Cytotoxicity against HFF cells assessed as inhibition in cell viability incubated for 5 days by luminescence based analysis; format: toxicity; settings: human, time 5 day
[12] = Inhibition of amino terminal GST tagged HCMV protease (1 to 256 residues) expressed in Escherichia coli BL21 (DE3) cells using 5-carboxyfluorescein [FAM]-RGVVNASSRLAK as peptide substrate incubated for 3 hrs by fluorescence based analysis; parameters: species or system Human betaherpesvirus 5
[13] = Inhibition of amino terminal GST tagged HCMV protease I2A mutant (1 to 256 residues) expressed in Escherichia coli BL21 (DE3) cells using 5-carboxyfluorescein [FAM]-RGVVNASSRLAK as peptide substrate incubated for 3 hrs by fluorescence based analysis; parameters: species or system Human betaherpesvirus 5
[14] = Inhibition of N-terminal 6 His-tagged HHV6 protease […] mutant (2 to 230 residues) expressed in Escherichia coli BL21 cells using 5FAM-KPSILNASLTPETVKK as peptide substrate incubated for 3 hrs by fluorescence based analysis; parameters: species or system Human betaherpesvirus 6
Human betaherpesvirus 5 [15] = assay: Inhibition of amino terminal GST tagged HCMV protease (1 to 256 residues) expressed in Escherichia coli BL21 (DE3) cells using 5-carboxyfluorescein [FAM]-RGVVNASSRLAK as peptide substrate at 99 uM incubated for 3 hrs by fluorescence based analysis relative to control
Human betaherpesvirus 6 = assay: Inhibition of N-terminal 6 His-tagged HHV6 protease (2 to 230 residues) expressed in Escherichia coli BL21 cells using 5FAM-KPSILNASLTPETVKK as peptide substrate at 99 uM incubated for 3 hrs by fluorescence based analysis relative to control
[16] = Inhibition of amino terminal GST tagged HCMV protease R9A mutant (1 to 256 residues) expressed in Escherichia coli BL21 (DE3) cells using 5-carboxyfluorescein [FAM]-RGVVNASSRLAK as peptide substrate incubated for 3 hrs by fluorescence based analysis; parameters: species or system Human betaherpesvirus 5
[17] = Inhibition of N-terminal 6 His-tagged HHV6 protease R9A mutant (2 to 230 residues) expressed in Escherichia coli BL21 cells using 5FAM-KPSILNASLTPETVKK as peptide substrate incubated for 3 hrs by fluorescence based analysis; parameters: species or system Human betaherpesvirus 6

In the case of `CC[C@H](C)[C@H](NC(=O)[C@H](Cc1ccccc1)NC(C)=O)C(=O)N[C@H](C(=O)NCC(=O)N[C@@H](Cc1c[nH]cn1)C(=O)N[C@@H](Cc1ccc(O)cc1)C(=O)N[C@@H](C)C(=O)N[C@H](C(=O)N[C@@H](CCCNC(=N)N)C(=O)N[C@@H](Cc1ccccc1)C(=O)N[C@@H](CC(C)C)C(=O)N1CCC[C@H]1C(=O)N[C@@H](CS)C(=O)NCC(N)=O)C(C)C)[C@@H](C)O` (Ac-FITGHYAVRFLPCG-NH2), the IC50 [1] is reported as 0.25 µM and the IC50 [2] is reported as 0.811 µM.

`CC[C@H](C)[C@H](NC(=O)[C@H](Cc1ccccc1)NC(C)=O)C(=O)N[C@H](C(=O)NCC(=O)N[C@@H](C)C(=O)N[C@@H](Cc1ccc(O)cc1)C(=O)N[C@@H](Cc1c[nH]c2ccccc12)C(=O)N[C@H](C(=O)N[C@@H](CCCNC(=N)N)C(=O)N[C@@H](Cc1ccccc1)C(=O)N[C@@H](CC(C)C)C(=O)N1CCC[C@H]1C(=O)N[C@@H](CS)C(=O)NCC(N)=O)C(C)C)[C@@H](C)O` (Ac-FITGAYWVRFLPCG-NH2) showed an IC50 [3] of 0.109 µM and an IC50 [4] of 0.086 µM.

In the case of `CC[C@H](C)[C@H](NC(=O)[C@H](Cc1ccccc1)NC(C)=O)C(=O)N[C@H](C(=O)NCC(=O)N[C@@H](Cc1c[nH]cn1)C(=O)N[C@@H](Cc1ccc(O)cc1)C(=O)N[C@@H](Cc1c[nH]c2ccccc12)C(=O)N[C@@H](C)C(=O)N[C@@H](CCCNC(=N)N)C(=O)N[C@@H](Cc1ccccc1)C(=O)N[C@@H](CC(C)C)C(=O)N1CCC[C@H]1C(=O)N[C@@H](CS)C(=O)NCC(N)=O)[C@@H](C)O` (Ac-FITGHYWARFLPCG-NH2), the IC50 [5] is reported as 0.096 µM and the IC50 [6] is reported as < 0.076 µM.

For `CC[C@H](C)[C@H](NC(=O)[C@H](Cc1ccccc1)NC(C)=O)C(=O)N[C@@H](C)C(=O)NCC(=O)N[C@@H](Cc1c[nH]cn1)C(=O)N[C@@H](Cc1ccc(O)cc1)C(=O)N[C@@H](Cc1c[nH]c2ccccc12)C(=O)N[C@H](C(=O)N[C@@H](CCCNC(=N)N)C(=O)N[C@@H](Cc1ccccc1)C(=O)N[C@@H](CC(C)C)C(=O)N1CCC[C@H]1C(=O)N[C@@H](CS)C(=O)NCC(N)=O)C(C)C` (Ac-FIAGHYWVRFLPCG-NH2), the IC50 [7] was 0.1 µM and the IC50 [8] was 0.157 µM.

In the case of `CN1C(=O)N(c2cccn([C@@H](c3ccccc3)c3cn(C4CCCC4)nc3-c3ccccc3)c2=O)C[C@@H]1C(=O)NC12CCC(CC1)NC2=O`, the IC50 [9] is reported as 11 µM, the EC50 (Human betaherpesvirus 5 [10]) is reported as > 25 µM and the CC50 at 120 h [11] is reported as > 25 µM. For the same compound, the IC50 [12] was 9.8 µM.

`Cc1ccc(C(c2cn(C3CCCC3)nc2-c2ccccc2)n2cccc(N3C[C@H](C(=O)NC45CCC(CC4)NC5=O)N(C)C3=O)c2=O)cc1` (mixture of isomers) gave an IC50 [9] of 5 µM and an IC50 [12] of 13 µM.

For `CC(=O)N[C@@H](Cc1ccccc1)C(=O)N[C@@H](C)C(=O)N[C@H](C(=O)NCC(=O)N[C@@H](Cc1c[nH]cn1)C(=O)N[C@@H](Cc1ccc(O)cc1)C(=O)N[C@@H](Cc1c[nH]c2ccccc12)C(=O)N[C@H](C(=O)N[C@@H](CCCNC(=N)N)C(=O)N[C@@H](Cc1ccccc1)C(=O)N[C@@H](CC(C)C)C(=O)N1CCC[C@H]1C(=O)N[C@@H](CS)C(=O)NCC(N)=O)C(C)C)[C@@H](C)O` (Ac-FATGHYWVRFLPCG-NH2), the IC50 [13] was 0.184 µM and the IC50 [14] was < 0.076 µM.

With `CC[C@H](C)[C@H](NC(C)=O)C(=O)N[C@H](C(=O)NCC(=O)N[C@@H](Cc1c[nH]cn1)C(=O)N[C@@H](Cc1ccc(O)cc1)C(=O)N[C@@H](Cc1c[nH]c2ccccc12)C(N)=O)[C@@H](C)O` (Ac-ITGHYW-NH2) the IC50 [9] was > 99 µM, the IC50 [12] was > 99 µM and the inhibition (Human betaherpesvirus 5 [15]) was 2%. The inhibition (Human betaherpesvirus 6) was 21%.

For `CC[C@H](C)[C@H](NC(=O)[C@H](Cc1ccccc1)NC(C)=O)C(=O)N[C@H](C(=O)NCC(=O)N[C@@H](Cc1c[nH]cn1)C(=O)N[C@@H](Cc1ccc(O)cc1)C(=O)N[C@@H](Cc1c[nH]c2ccccc12)C(=O)N[C@H](C(=O)N[C@@H](C)C(=O)N[C@@H](Cc1ccccc1)C(=O)N[C@@H](CC(C)C)C(=O)N1CCC[C@H]1C(=O)N[C@@H](CS)C(=O)NCC(N)=O)C(C)C)[C@@H](C)O` (Ac-FITGHYWVAFLPCG-NH2), the IC50 [16] was 0.092 µM and the IC50 [17] was < 0.076 µM.
